Data reported in patent publication US20220184071A1, “GEPOTIDACIN FOR USE IN THE TREATMENT OF BACTERIAL URINARY TRACT INFECTIONS” (GlaxoSmithKline Intellectual Property Development Limited, priority 2019, published 2022).
≈ marks a conversion by molar mass, not a printed value. Like-named read-outs stand apart in the source and are kept apart here.

What was measured:
[1] = system: S. saprophyticus; assay: MIC by CLSI agar dilution, Example 1 Method 2; assay type: cell-based, Staphylococcus saprophyticus
Experimental: (§1) Antimicrobial activity was determined in a second study by […] using the CLSI recommended procedure in serial two-fold dilutions and the minimum inhibitory concentration (MIC) was determined as the lowest concentration of the compound that inhibited visible growth.
This study tested gepotidacin by CLSI agar dilution against 51 isolates of S. saprophyticus collected between 2005-2018.
Amikacin, ceftazidime, colistin, fosfomycin, levofloxacin, meropenem, nitrofurantoin and trimethoprim-sulfamethoxazole were included as comparators. MICs for and comparators were determined by agar dilution according CLSI methods.
(§2) MICs were determined according to CLSI agar dilution guidelines.

[2] = system: Bilophila wadsworthia; assay: MIC by CLSI agar dilution, Example 6 Method 1; assay type: cell-based; conditions: 26 isolates, read-out: Gepotidacin MIC90
Experimental: (§3) Antimicrobial activity was determined by agar dilution using the Clinical and Laboratory Standards Institute (CLSI) recommended procedure.
(§4) The compounds were tested in serial two-fold dilutions and the minimum inhibitory concentration (MIC) was determined as the lowest concentration of the compound that inhibited visible growth. Gepotidacin was tested against 333 gram-negative anaerobic and 203 gram-positive anaerobic isolates collected from clinical samples in North America and Europe from 2000 to 2017; the majority collected from 2013 to 2016.
(§5) Ceftriaxone, clindamycin, imipenem, metronidazole, moxifloxacin and piperacillin/tazobactam were included as comparators.

[3] = system: all the gram-negative anaerobe organisms combined; assay: MIC by CLSI agar dilution, Example 6 Method 1; assay type: cell-based; conditions: all gram-negative anaerobes combined; read-out: overall MIC90
Experimental: as §3, §4, §5

[4] = system: gram-positive anaerobe organisms combined; assay: MIC by CLSI agar dilution, Example 6 Method 1; assay type: cell-based; conditions: gram-positive anaerobes combined; read-out: overall MIC90
Experimental: as §3, §4, §5

[5] = system: N. gonorrhoeae; assay: MIC by CLSI agar dilution, Example 1 Method 2; assay type: cell-based, Neisseria gonorrhoeae; conditions: n = 95
Experimental: as §1, §2

[6] = MIC by CLSI broth microdilution, Example 1 Method 1, gram-negative aerobic organisms; assay type: cell-based; conditions: at least one strain of every organism listed; salt of gepotidacin (such as mesylate salt)
Experimental: Antimicrobial activity was determined by broth microdilution using the CLSI recommended procedure.

[7] = system: Lactobacillus rhamnosus; assay: MIC by agar dilution, drug-resistant isolates; assay type: cell-based; conditions: imipenem R; 18 isolates
Experimental: as §3, §4
(§6) Additional analysis was performed from the results of the study described in Method 1 above, to determine the in vitro activity of gepotidacin against gram-negative and gram-positive anaerobic organisms with resistance to ceftriaxone, clindamycin, imipenem, metronidazole, moxifloxacin and piperacillin/tazobactam.

[8] = system: Bifidobacterium adolescentis; assay: MIC by agar dilution, drug-resistant isolates; assay type: cell-based; conditions: moxifloxacin R; 1 isolate
Experimental: as §3, §4, §6

[9] = system: Porphyromonas somerae; assay: MIC by agar dilution, drug-resistant isolates; assay type: cell-based; conditions: clindamycin R; 1 isolate
Experimental: as §3, §4, §6

[10] = system: Bacteroides ovatus; assay: MIC by agar dilution, drug-resistant isolates; assay type: cell-based
Experimental: as §3, §4, §6

[11] = system: Veillonella parvula; assay: MIC by agar dilution, drug-resistant isolates; assay type: cell-based
Experimental: as §3, §4, §6

[12] = system: Bacteroides thetaiotaomicron; assay: MIC by agar dilution, drug-resistant isolates; assay type: cell-based
Experimental: as §3, §4, §6

[13] = system: Bifidobacterium longum; assay: MIC by agar dilution, drug-resistant isolates; assay type: cell-based; conditions: moxifloxacin R; 1 isolate
Experimental: as §3, §4, §6

[14] = system: Porphyromonas, non-speciated; assay: MIC by agar dilution, drug-resistant isolates; assay type: cell-based; conditions: 1 isolate
Experimental: as §3, §4, §6

[15] = system: Bifidobacterium breve; assay: MIC by agar dilution, drug-resistant isolates; assay type: cell-based; conditions: moxifloxacin R; 1 isolate
Experimental: as §3, §4, §6

[16] = system: Veillonella, non-speciated; assay: MIC by agar dilution, drug-resistant isolates; assay type: cell-based
Experimental: as §3, §4, §6

[17] = system: Eubacterium, non-speciated; assay: MIC by agar dilution, drug-resistant isolates; assay type: cell-based; conditions: 1 isolate
Experimental: as §3, §4, §6

[18] = system: Eubacterium nodatum; assay: MIC by agar dilution, drug-resistant isolates; assay type: cell-based; conditions: metronidazole R; 1 isolate
Experimental: as §3, §4, §6

[19] = system: Bifidobacterium pseudocatenulatum; assay: MIC by agar dilution, drug-resistant isolates; assay type: cell-based; conditions: clindamycin R; 1 isolate
Experimental: as §3, §4, §6

[20] = system: Bacteroides stercoris; assay: MIC by agar dilution, drug-resistant isolates; assay type: cell-based; conditions: ceftriaxone R, 2 isolates
Experimental: as §3, §4, §6

[21] = system: Fusobacterium, non-speciated; assay: MIC by agar dilution, drug-resistant isolates; assay type: cell-based; conditions: 1 isolate
Experimental: as §3, §4, §6

[22] = system: Bacteroides caccae; assay: MIC by agar dilution, drug-resistant isolates; assay type: cell-based
Experimental: as §3, §4, §6

[23] = system: Lactobacillus gasseri; assay: MIC by agar dilution, drug-resistant isolates; assay type: cell-based; conditions: clindamycin R; 2 isolates
Experimental: as §3, §4, §6

O=c1ccc2ncc(=O)n3c2n1C[C@H]3CN1CCC(NCc2cc3c(cn2)OCCC3)CC1 [gepotidacin, (2R)-2-({4-[(3,4-dihydro-2H-pyrano[2,3-c]pyridin-6-ylmethyl)amino]-1-piperidinyl}methyl)-1,2-dihydro-3H,8H-2a,5,8a-triazaacenaphthylene-3,8-dione]
% of isolates with MIC ≤0.125 mg/L ([1]; 51 isolates): 100% | MIC90 ([1]; Staphylococcus saprophyticus, 51 isolates collected 2005-2018, read-out: MIC90): 0.125 µg/mL (≈ 0.279 µM) | MIC ([1]; Staphylococcus saprophyticus, 51 isolates, read-out: MICs for all S. saprophyticus): ≤ 0.125 µg/mL | MIC50 ([1]; Staphylococcus saprophyticus, n = 51): ≤ 0.06 µg/mL | MIC90 ([1]; n = 51): 0.125 µg/mL (≈ 0.279 µM) | Number of Isolates at Gepotidacin MIC ≤0.25 mg/L ([1]; n = 51): 51 | MIC90 [2]: 0.5 µg/mL (≈ 1.11 µM) | MIC90 [3]: 4 µg/mL | MIC90 [4]: 2 µg/mL | MIC50 ([5]; Neisseria gonorrhoeae): 0.25 µg/mL (≈ 0.557 µM) | MIC90 ([5]; Neisseria gonorrhoeae): 1 µg/mL (≈ 2.23 µM) | Number of Isolates at Gepotidacin MIC 0.5 mg/L [5]: 6 | Number of Isolates at Gepotidacin MIC 1 mg/L [5]: 6 | Number of Isolates at Gepotidacin MIC 2 mg/L [5]: 4 | Number of Isolates at Gepotidacin MIC ≤0.25 mg/L [5]: 79 | MIC [6]: ≤ 8 µg/mL | Gepotidacin MIC range [7]: 0.06 to 1 µg/mL | Gepotidacin MIC range [8]: 0.25 µg/mL | Gepotidacin MIC range [9]: 0.06 µg/mL | Gepotidacin MIC range ([10]; ceftriaxone R, 8 isolates): 1 to 4 µg/mL | Gepotidacin MIC range ([10]; clindamycin R, 4 isolates): 1 to 4 µg/mL | Gepotidacin MIC range ([10]; moxifloxacin R, 2 isolates): 1 to 4 µg/mL | Gepotidacin MIC range ([11]; ceftriaxone R, 1 isolate): ≤0.015 µg/mL | Gepotidacin MIC range ([11]; clindamycin R, 1 isolate): 0.125 µg/mL | Gepotidacin MIC range ([11]; moxifloxacin R, 2 isolates): ≤0.015 to 0.03 µg/mL | Gepotidacin MIC range ([11]; pip/tazo R, 1 isolate): 0.03 µg/mL | Gepotidacin MIC range ([12]; ceftriaxone R, 43 isolates): 0.5 to 16 µg/mL | Gepotidacin MIC range ([12]; clindamycin R, 21 isolates): 0.5 to 8 µg/mL | Gepotidacin MIC range ([12]; moxifloxacin R, 6 isolates): 0.5 to 8 µg/mL | Gepotidacin MIC range [13]: 0.12 µg/mL | Gepotidacin MIC range ([14]; ceftriaxone R): 0.125 µg/mL | Gepotidacin MIC range ([14]; clindamycin R): 0.06 µg/mL | Gepotidacin MIC range ([14]; imipenem R): 0.125 µg/mL | Gepotidacin MIC range [15]: 0.5 µg/mL | Gepotidacin MIC range ([16]; clindamycin R, 4 isolates): 0.125 µg/mL | Gepotidacin MIC range ([16]; moxifloxacin R, 1 isolate): ≤0.015 µg/mL | Gepotidacin MIC range ([17]; ceftriaxone R): 2 µg/mL | Gepotidacin MIC range ([17]; clindamycin R): 2 µg/mL | Gepotidacin MIC range ([17]; moxifloxacin R): 2 µg/mL | Gepotidacin MIC range [18]: 0.125 µg/mL | Gepotidacin MIC range [19]: 4 µg/mL | Gepotidacin MIC range [20]: 0.12 to 1 µg/mL | Gepotidacin MIC range ([21]; ceftriaxone R): 2 µg/mL | Gepotidacin MIC range ([21]; clindamycin R): 2 µg/mL | MIC ([22]; Bacteroides caccae, 1 drug-resistant isolate): 8 µg/mL (≈ 17.8 µM) | Gepotidacin MIC range ([22]; ceftriaxone R, 2 isolates): 0.05 to 8 µg/mL | Gepotidacin MIC range ([22]; clindamycin R, 1 isolate): 8 µg/mL | Gepotidacin MIC range ([22]; moxifloxacin R, 1 isolate): 0.5 µg/mL | Gepotidacin MIC range [23]: 0.5 to 1 µg/mL
